Converted amounts (≈) assume the structure as drawn. Where two headings read alike, the source gives them in different places.
How the values were obtained:
Assay type in all cases: cell-based
S. aureus CJ247 = assay: MIC, agar diffusion, S. aureus CJ247; conditions: Staphylococcus aureus, read-out: in vitro activities MIC
Text: (§1) In vitro investigations have shown a relatively high potency of compounds of the invention against all bacteria including gram-positive and gram-negative strains (Staphylococci, Streptococci, Corynebacteriae, Mycobacteriae, Proteus, Propionibacterium, Pseudomonas, Neisseriae, E. coli) and fungal strains (Candida and Aspergillus). […] In addition, the studies of post-antibiotic effects point towards a strong bactericidal effect of the compounds of the invention. […] The potency of new polyaminated fusidic acid analogues is estimated by comparing the inhibition of growth of different microorganisms produced by known concentrations of the analogue to be examined and a reference compound such as fusidic acid. The microbiological assay set up is in agreement with the European Pharmacopoeia 3rd edition (1997). It is an agar diffusion method where the same volume of the tested solution is added to cavities in agar. The inhibition zones are function of the concentration of the fusidic acid analogue used. All assays are run with fusidic acid as reference substance.

S. aureus CJ200 = assay: MIC, agar diffusion, S. aureus CJ200; conditions: Staphylococcus aureus, read-out: in vitro activities MIC
Text: as §1

S. aureus CJ234F = assay: MIC, agar diffusion, S. aureus CJ234F; conditions: Staphylococcus aureus; S. aureus CJ234F (MRSA, Fus. resistant); read-out: in vitro activities MIC
Text: as §1

S. aureus N6 = assay: MIC, agar diffusion, S. aureus N6; conditions: Staphylococcus aureus; S. aureus N6 (Fus. resistant); read-out: in vitro activities MIC
Text: as §1

S. epidermis CK5 = assay: MIC, agar diffusion, S. epidermis CK5; conditions: Staphylococcus epidermidis, read-out: in vitro activities MIC
Text: as §1

[1] = test system: Propionibacterium acnes FN33; assay: MIC, agar diffusion, Propionibacterium acnes FN33; conditions: Cutibacterium acnes, read-out: in vitro activities MIC
Text: as §1

[2] = test system: Corynebacterium xerosis FF; assay: MIC, agar diffusion, Corynebacterium xerosis FF; conditions: read-out: in vitro activities MIC
Text: as §1

[3] = test system: Streptococcus pyogenes EC88; assay: MIC, agar diffusion, Streptococcus pyogenes EC88; conditions: read-out: in vitro activities MIC
Text: as §1

[4] = test system: Streptococcus faecium EI19; assay: MIC, agar diffusion, Streptococcus faecium EI19; conditions: Enterococcus faecium; Streptococcus faecium EI19 (Penicillin resistant); read-out: in vitro activities MIC
Text: as §1

E. coli HA165 = assay: MIC, agar diffusion, E. coli HA165; conditions: Escherichia coli, read-out: in vitro activities MIC
Text: as §1

[5] = test system: Pseudomonas aeruginosa BA17; assay: MIC, agar diffusion, Pseudomonas aeruginosa BA17; conditions: read-out: in vitro activities MIC
Text: as §1

[6] = test system: Saccaromyces cervisiae ZZ7; assay: MIC, agar diffusion, Saccaromyces cervisiae ZZ7; conditions: Saccharomyces cerevisiae, read-out: in vitro activities MIC
Text: as §1

Candida albicans ZA = assay: MIC, agar diffusion, Candida albicans ZA; conditions: read-out: in vitro activities MIC
Text: as §1

Asbergillus niger ZM35 = assay: MIC, agar diffusion, Asbergillus niger ZM35; conditions: Aspergillus niger, read-out: in vitro activities MIC
Text: as §1

S. aureus CJ234R = assay: MIC, agar diffusion, S. aureus CJ234R; conditions: Staphylococcus aureus, read-out: in vitro activities MIC
Text: as §1

MIC (S. aureus CJ234R; S. aureus CJ234R (MRSA, Rifampicin resistant)) [µg/mL] | SMILES | MIC (S. aureus CJ247) [µg/mL] | MIC (S. aureus CJ200) [µg/mL] | MIC (S. aureus CJ234F) [µg/mL] | MIC (S. aureus N6) [µg/mL] | MIC (S. epidermis CK5) [µg/mL] | MIC [1] [µg/mL] | MIC [2] [µg/mL] | MIC [3] [µg/mL] | MIC [4] [µg/mL] | MIC (E. coli HA165) [µg/mL] | MIC [5] [µg/mL] | MIC [6] [µg/mL] | MIC (Candida albicans ZA) [µg/mL] | MIC (Asbergillus niger ZM35) [µg/mL] | MIC (S. aureus CJ234R; MRSA) [µg/mL]
 | CC(=O)O[C@H]1C[C@@]2(C)C(C[C@@H](O)C3[C@@]4(C)CC[C@@H](O)[C@@H](C)C4CC[C@@]32C)[C@@H]1[C@H](CCCC(C)C)C(=O)NCCCNCCCCNCCCN (stereo partly drawn) [Compound 125, 21-N-[3′-({4′-[(3′-aminopropyl)amino]butyl}amino)propyl]-17R,20S,24,25-tetrahydrofusid-21-amide] | 1 (≈ 1.42 µM) | 1 (≈ 1.42 µM) | 1 (≈ 1.42 µM) | 1 (≈ 1.42 µM) | 1 (≈ 1.42 µM) | 1 (≈ 1.42 µM) | 1 (≈ 1.42 µM) | 4 (≈ 5.67 µM) | 16 (≈ 22.7 µM) | 16 (≈ 22.7 µM) | 16 (≈ 22.7 µM) | 16 (≈ 22.7 µM) | 16 (≈ 22.7 µM) | 16 (≈ 22.7 µM) | 
 | CC(=O)O[C@H]1C[C@@]2(C)C(C[C@@H](O)C3[C@@]4(C)CC[C@@H](OC(C)=O)[C@@H](C)C4CC[C@@]32C)[C@@H]1[C@H](CCCC(C)C)C(=O)NCCCNCCCNCCCN (stereo partly drawn) [Compound 172, 21-N-[3′-({3′-[(3′-aminopropyl)amino]propyl}amino)propyl]-3-OAc-17R,20S,24,25-tetrahydrofusid-21-amide] | 4 (≈ 5.46 µM) | 4 (≈ 5.46 µM) | 4 (≈ 5.46 µM) | 4 (≈ 5.46 µM) | 4 (≈ 5.46 µM) | 1 (≈ 1.36 µM) | 4 (≈ 5.46 µM) | 4 (≈ 5.46 µM) |  | 4 (≈ 5.46 µM) | 4 (≈ 5.46 µM) | 64 (≈ 87.3 µM) | 64 (≈ 87.3 µM) | 64 (≈ 87.3 µM) | 1 (≈ 1.36 µM)
16 (≈ 47.4 µM) | CC(=O)NC[C@H]1CN(c2ccc(N3CCOCC3)c(F)c2)C(=O)O1 [Linezolid, reference compound] | 1 (≈ 2.96 µM) | 4 (≈ 11.9 µM) | 1 (≈ 2.96 µM) |  | 0.25 (≈ 0.741 µM) | 1 (≈ 2.96 µM) |  | 4 (≈ 11.9 µM) |  |  |  |  |  |  | 
 | CC(=O)O[C@H]1C[C@@]2(C)C(CCC3[C@@]4(C)CC[C@@H](OS(=O)(=O)O)[C@@H](C)C4CC[C@@]32C)[C@@H]1[C@H](CCCC(C)C)C(=O)NCCCNCCCNCCCN (some centres unmarked) [Compound 180] | 1 (≈ 1.32 µM) | 1 (≈ 1.32 µM) | 1 (≈ 1.32 µM) | 1 (≈ 1.32 µM) | 4 (≈ 5.3 µM) | 1 (≈ 1.32 µM) | 1 (≈ 1.32 µM) | 16 (≈ 21.2 µM) |  | 16 (≈ 21.2 µM) | 64 (≈ 84.8 µM) | 125 (≈ 166 µM) | 64 (≈ 84.8 µM) | 4 (≈ 5.3 µM) | 
 | CC(=O)O[C@H]1C[C@@]2(C)C(C[C@@H](O)C3[C@@]4(C)CC[C@@H](O)[C@@H](C)C4CC[C@@]32C)[C@@H]1[C@H](CCCC(C)C)C(=O)NCCCCNCCCN (stereo partly drawn) [Compound 121, 21-N-{4′-[(3′-aminopropyl)amino]butyl}-17R,20S,24,25-tetrahydrofusid-21-amide] | 4 (≈ 6.17 µM) | 4 (≈ 6.17 µM) | 4 (≈ 6.17 µM) | 16 (≈ 24.7 µM) | 4 (≈ 6.17 µM) | 4 (≈ 6.17 µM) | 4 (≈ 6.17 µM) | 16 (≈ 24.7 µM) | 16 (≈ 24.7 µM) | 16 (≈ 24.7 µM) |  | 16 (≈ 24.7 µM) | 16 (≈ 24.7 µM) | 64 (≈ 98.8 µM) | 
 | CC(=O)O[C@H]1C[C@@]2(C)C(CCC3[C@@]4(C)CC[C@@H](O)[C@@H](C)C4CC[C@@]32C)[C@@H]1[C@H](CCCC(C)C)C(=O)NCCNCCCNCCN (some centres unmarked) [Compound 133] | 4 (≈ 6.18 µM) | 4 (≈ 6.18 µM) | 4 (≈ 6.18 µM) | 4 (≈ 6.18 µM) | 4 (≈ 6.18 µM) | 4 (≈ 6.18 µM) | 4 (≈ 6.18 µM) | 4 (≈ 6.18 µM) | 4 (≈ 6.18 µM) | 16 (≈ 24.7 µM) | 16 (≈ 24.7 µM) | 32 (≈ 49.5 µM) | 32 (≈ 49.5 µM) | 32 (≈ 49.5 µM) | 
 | CC(=O)O[C@H]1C[C@@]2(C)C(C[C@@H](O)C3[C@@]4(C)CC[C@@H](O)[C@@H](C)C4CC[C@@]32C)[C@@H]1[C@H](CCCC(C)C)C(=O)NCCCCNCCCNCCCCN (stereo partly drawn) [Compound 123, 21-N-[4′-({3′-[(4′-aminobutyl)amino]propyl}amino)butyl]-17R,20S,24,25-tetrahydrofasid-21-amide] | 4 (≈ 5.56 µM) | 4 (≈ 5.56 µM) | 4 (≈ 5.56 µM) | 4 (≈ 5.56 µM) | 4 (≈ 5.56 µM) | 4 (≈ 5.56 µM) | 4 (≈ 5.56 µM) | 4 (≈ 5.56 µM) | 4 (≈ 5.56 µM) | 16 (≈ 22.2 µM) | 16 (≈ 22.2 µM) | 16 (≈ 22.2 µM) | 16 (≈ 22.2 µM) | 4 (≈ 5.56 µM) | 

Source: patent US20030087887A1, “Novel fusidic acid derivatives” (priority 2001, published 2003)
